According to paper PMC12337661, “PIEZO1 mechanical insensitivity in generalized lymphatic dysplasia with the potential for pharmacological rescue” (iScience, 2025):

Key:
Assay in all cases: Intracellular Ca2+ measurement (fura-2), T-REx-293 cells stably transfected
Format in all cases: cell-based
[1] = target: T1, E824V mPIEZO1 (Mus musculus, UniProt E2JF22, E824V); details: normalized to the WT Yoda1 maximum response
T1 construct: expressed in transfected cells
Experimental: (§1) T-REx-293 cell line was transfected with pcDNA4/TO-mPIEZO1 constructs using Lipofectamine 2000 (Invitrogen) as above and treated with 200 μg.mL^−1 zeocin (InvivoGen) to select for stably transfected cells. At least two strongly expressing clonal cell lines were established and tested for each variant. All cell lines were maintained in Dulbecco’s Modified Eagle’s medium (Invitrogen) supplemented with 10% heat-inactivated fetal calf serum (Sigma-Aldrich), penicillin (50 units.mL^−1) and streptomycin (0.5 mg.mL^−1) (Sigma-Aldrich) and grown at 37°C in a humidified 5% CO2 incubator.
(§2) For intracellular Ca^2+ assays, cells were plated at 80–90% confluence in 96-well plates 24 h prior to recordings (6–8 × 10^4 cells per well). […] Cells were washed with SBS and incubated at room temperature for 20 min prior to recordings. Equal volumes of 2x concentrated compounds were injected to test for acute channel activation. Pre-incubation with compounds occurred during the 20 min prior to recordings. To expose cell membranes to hypo-osmolality, an equal volume of hypotonic SBS (containing only 35 mM NaCl) was injected onto the cells. Measurements were made on a fluorescence plate reader (Flexstation III, Molecular Devices) at room temperature (21 ± 2°C). Fura-2 was excited at 340 nm and 380 nm and emitted light collected at 510 nm, with measurements shown as the change in fluorescence (F) ratio (ΔF340/380).
(§3) KC41 (Dooku1) was prepared as described.[28] All purchased chemicals and solvents were used without further purification unless otherwise stated. All compounds were at least 95% pure by 1H NMR. 1H Nuclear Magnetic Resonance spectra were recorded at 500 MHz using a Bruker DRX 500 instrument or at 400 MHz using a Bruker DPX 400. 1H spectra are referenced based on the residual proton in the solvent (e.g., the CHCl3, 0.01% in 99.99% CDCl3). Coupling constants (J) are reported to the nearest 0.1 Hz. 13C NMR spectra were recorded at 125 MHz on 500 MHz spectrometers or at 100 MHz on 400 MHz spectrometers. LC-MS was performed on a Bruker Daltronics running a gradient of increasing acetonitrile (5–95%) in H2O both containing 0.1% formic acid at 1 mL.min^−1, on a short path C18 reverse phase column, detecting compounds with both a diode array detector and a Bruker mass spectrum analyser. HRMS was performed on a Bruker Daltonics micrOTOF using positive electrospray ionisation (ES+). Automated column chromatograph was carried out using a Biotage Isolera Four, using either Sfär Silica D or KP-Silica cartridges. HPLC was performed on an Agilent 1290 Infinity Series equipped with a UV detector and Hyperprep C18 reverse phase column. Key to NMR abbreviations: s (singlet), br s (broad singlet) d (doublet), dd (doublet of doublets), ddd (doublet of doublets of doublets), t (triplet), dt (doublet of triples), q (quartet), m (multiplet), ap. t (apparent triplet). For experiments, Yoda1 and its analogues were prepared as 10 mM stock solutions in 100% dimethyl sulfoxide (DMSO) before serial dilution in DMSO and final dilution in aqueous solution. Cells were exposed to 0.1% DMSO for all concentrations of the compounds from 0 to 10 μM.

[2] = target: T2, G1994D mPIEZO1 (Mus musculus, UniProt E2JF22, G1994D); details: for Mean (concentration-response, Figure 5g): G1994D
T2 construct: expressed in transfected cells
T2 sequence (E2JF22 whole entry G1994D): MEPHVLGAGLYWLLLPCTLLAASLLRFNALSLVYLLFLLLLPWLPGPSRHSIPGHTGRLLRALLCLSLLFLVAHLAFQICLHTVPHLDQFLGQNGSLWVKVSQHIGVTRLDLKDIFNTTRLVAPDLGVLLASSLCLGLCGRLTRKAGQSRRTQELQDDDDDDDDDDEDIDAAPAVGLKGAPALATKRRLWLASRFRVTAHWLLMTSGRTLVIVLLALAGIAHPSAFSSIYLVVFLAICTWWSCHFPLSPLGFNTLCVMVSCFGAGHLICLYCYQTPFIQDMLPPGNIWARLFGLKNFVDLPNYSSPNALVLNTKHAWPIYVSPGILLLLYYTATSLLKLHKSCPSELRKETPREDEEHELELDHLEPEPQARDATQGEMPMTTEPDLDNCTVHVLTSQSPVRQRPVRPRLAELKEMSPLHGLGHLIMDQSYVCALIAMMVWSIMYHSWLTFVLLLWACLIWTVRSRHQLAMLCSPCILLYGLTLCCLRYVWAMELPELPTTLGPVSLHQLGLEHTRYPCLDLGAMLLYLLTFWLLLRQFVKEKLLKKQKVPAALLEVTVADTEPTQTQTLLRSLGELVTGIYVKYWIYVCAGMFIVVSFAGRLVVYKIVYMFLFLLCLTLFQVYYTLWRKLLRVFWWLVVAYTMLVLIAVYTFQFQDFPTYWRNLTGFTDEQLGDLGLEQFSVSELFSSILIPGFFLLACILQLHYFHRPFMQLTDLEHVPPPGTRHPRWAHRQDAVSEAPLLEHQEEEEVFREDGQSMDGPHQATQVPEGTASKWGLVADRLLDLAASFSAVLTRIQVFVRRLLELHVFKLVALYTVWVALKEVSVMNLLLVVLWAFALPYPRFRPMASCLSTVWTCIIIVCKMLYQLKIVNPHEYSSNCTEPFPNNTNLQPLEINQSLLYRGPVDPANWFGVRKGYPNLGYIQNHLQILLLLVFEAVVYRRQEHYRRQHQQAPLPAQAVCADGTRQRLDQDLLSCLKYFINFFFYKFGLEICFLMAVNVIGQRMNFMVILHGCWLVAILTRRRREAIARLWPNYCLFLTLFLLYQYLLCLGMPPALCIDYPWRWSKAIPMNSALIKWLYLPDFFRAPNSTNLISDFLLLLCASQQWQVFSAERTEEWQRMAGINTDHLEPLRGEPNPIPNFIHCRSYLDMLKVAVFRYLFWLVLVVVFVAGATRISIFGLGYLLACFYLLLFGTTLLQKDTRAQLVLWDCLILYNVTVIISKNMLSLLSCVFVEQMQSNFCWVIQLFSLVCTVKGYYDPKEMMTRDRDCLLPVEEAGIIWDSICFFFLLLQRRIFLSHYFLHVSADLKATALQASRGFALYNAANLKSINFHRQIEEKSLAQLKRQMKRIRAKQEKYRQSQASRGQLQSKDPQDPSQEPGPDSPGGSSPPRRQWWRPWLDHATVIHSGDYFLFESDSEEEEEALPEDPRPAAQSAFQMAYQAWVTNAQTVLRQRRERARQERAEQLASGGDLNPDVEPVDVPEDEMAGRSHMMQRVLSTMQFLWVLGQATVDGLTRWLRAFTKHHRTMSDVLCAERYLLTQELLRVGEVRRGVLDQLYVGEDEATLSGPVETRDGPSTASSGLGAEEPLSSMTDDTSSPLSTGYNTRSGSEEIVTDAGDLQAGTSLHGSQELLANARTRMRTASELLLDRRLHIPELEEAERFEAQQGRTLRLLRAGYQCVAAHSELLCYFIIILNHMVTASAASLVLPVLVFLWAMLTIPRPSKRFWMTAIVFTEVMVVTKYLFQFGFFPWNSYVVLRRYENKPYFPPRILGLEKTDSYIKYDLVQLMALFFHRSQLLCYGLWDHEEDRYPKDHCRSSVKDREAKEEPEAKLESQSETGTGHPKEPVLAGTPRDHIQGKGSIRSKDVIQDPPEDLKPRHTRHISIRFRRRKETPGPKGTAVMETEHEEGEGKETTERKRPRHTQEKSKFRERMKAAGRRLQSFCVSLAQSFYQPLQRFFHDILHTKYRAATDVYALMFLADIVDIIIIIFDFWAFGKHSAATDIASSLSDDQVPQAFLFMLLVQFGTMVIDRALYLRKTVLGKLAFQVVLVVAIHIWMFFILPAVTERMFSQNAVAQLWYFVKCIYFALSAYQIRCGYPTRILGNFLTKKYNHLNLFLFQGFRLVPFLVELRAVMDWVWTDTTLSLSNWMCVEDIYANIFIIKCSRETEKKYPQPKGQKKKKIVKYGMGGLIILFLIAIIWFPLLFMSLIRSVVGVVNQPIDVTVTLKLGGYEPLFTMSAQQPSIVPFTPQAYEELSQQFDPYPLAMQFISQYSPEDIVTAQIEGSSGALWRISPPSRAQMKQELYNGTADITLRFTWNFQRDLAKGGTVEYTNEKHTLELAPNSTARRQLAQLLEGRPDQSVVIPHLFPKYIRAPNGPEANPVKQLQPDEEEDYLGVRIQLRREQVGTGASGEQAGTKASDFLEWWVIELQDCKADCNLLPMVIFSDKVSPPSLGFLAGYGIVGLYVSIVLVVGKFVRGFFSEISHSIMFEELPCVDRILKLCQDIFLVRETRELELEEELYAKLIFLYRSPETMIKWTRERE
Experimental: as §1, §2, §3

[3] = target: T3, I2286T mPIEZO1 (Mus musculus, UniProt E2JF22, I2286T)
T3 construct: expressed in transfected cells
T3 sequence (E2JF22 whole entry I2286T): as the sequence (E2JF22 whole entry G1994D) above, with D1994G, I2286T counted along it
Experimental: as §1, §2, §3

[4] = target: T4, WT mPIEZO1 (Mus musculus, UniProt E2JF22); details: 1.5 min exposure; fitted Hill equation
T4 construct: expressed in transfected cells
T4 sequence (E2JF22 whole entry): as the sequence (E2JF22 whole entry G1994D) above, with D1994G counted along it
Experimental: as §1, §2, §3

T1 sequence (E2JF22 whole entry E824V): as the sequence (E2JF22 whole entry G1994D) above, with E824V, D1994G counted along it

EC50 [1]: 760 nM
EC50 ([2]; 1.5 min exposure): 1000 nM
Mean (concentration-response, Figure 5g) ([2]; Yoda2b concentration 0.01 µM): -0.02242
Mean (concentration-response, Figure 5g) ([2]; Yoda2b concentration 0.03 µM): 0.00849
Mean (concentration-response, Figure 5g) ([2]; Yoda2b concentration 0.1 µM): 0.01915
Mean (concentration-response, Figure 5g) ([2]; Yoda2b concentration 0.3 µM): 0.1358
Mean (concentration-response, Figure 5g) ([2]; Yoda2b concentration 1 µM): 0.5075
Mean (concentration-response, Figure 5g) ([2]; Yoda2b concentration 3 µM): 0.8675
Mean (concentration-response, Figure 5g) ([2]; Yoda2b concentration 10 µM): 1
Mean (ΔFratio) ([3]; 0.3 µM, time 0 s): 0.00239
Mean (ΔFratio) ([3]; 0.3 µM, time 5 s): -0.00843
Mean (ΔFratio) ([3]; 0.3 µM, time 10 s): 0.00738
Mean (ΔFratio) ([3]; 0.3 µM, time 15 s): -3.95E-05
Mean (ΔFratio) ([3]; 0.3 µM, time 20 s): -9.74E-04
Mean (ΔFratio) ([3]; 0.3 µM, time 25 s): -3.25E-04
Mean (ΔFratio) ([3]; 0.3 µM, time 30 s): -0.07905
Mean (ΔFratio) ([3]; 0.3 µM, time 35 s): -0.08536
Mean (ΔFratio) ([3]; 0.3 µM, time 40 s): 0.2313
Mean (ΔFratio) ([3]; 0.3 µM, time 45 s): 0.4546
Mean (ΔFratio) ([3]; 0.3 µM, time 50 s): 0.5954
Mean (ΔFratio) ([3]; 0.3 µM, time 55 s): 0.6989
Mean (ΔFratio) ([3]; 0.3 µM, time 60 s): 0.7448
Mean (ΔFratio) ([3]; 0.3 µM, time 65 s): 0.7353
Mean (ΔFratio) ([3]; 0.3 µM, time 70 s): 0.7286
Mean (ΔFratio) ([3]; 0.3 µM, time 75 s): 0.7236
Mean (ΔFratio) ([3]; 0.3 µM, time 80 s): 0.681
Mean (ΔFratio) ([3]; 0.3 µM, time 85 s): 0.6794
Mean (ΔFratio) ([3]; 0.3 µM, time 90 s): 0.6567
Mean (ΔFratio) ([3]; 0.3 µM, time 95 s): 0.6006
Mean (ΔFratio) ([3]; 0.3 µM, time 100 s): 0.6101
Mean (ΔFratio) ([3]; 0.3 µM, time 105 s): 0.603
Mean (ΔFratio) ([3]; 0.3 µM, time 110 s): 0.5805
Mean (ΔFratio) ([3]; 0.3 µM, time 115 s): 0.5587
Mean (ΔFratio) ([3]; 0.3 µM, time 120 s): 0.5669
Mean (ΔFratio) ([3]; 0.3 µM, time 125 s): 0.5131
Mean (ΔFratio) ([3]; 0.3 µM, time 130 s): 0.5257
Mean (ΔFratio) ([3]; 3 µM, time 0 s): -0.00226
Mean (ΔFratio) ([3]; 3 µM, time 5 s): 0.01302
Mean (ΔFratio) ([3]; 3 µM, time 10 s): -0.01316
Mean (ΔFratio) ([3]; 3 µM, time 15 s): -0.00422
Mean (ΔFratio) ([3]; 3 µM, time 20 s): 0.00798
Mean (ΔFratio) ([3]; 3 µM, time 25 s): -0.00136
Mean (ΔFratio) ([3]; 3 µM, time 30 s): -0.4575
Mean (ΔFratio) ([3]; 3 µM, time 35 s): -0.0464
Mean (ΔFratio) ([3]; 3 µM, time 40 s): 0.8681
Mean (ΔFratio) ([3]; 3 µM, time 45 s): 1.381
Mean (ΔFratio) ([3]; 3 µM, time 50 s): 1.657
Mean (ΔFratio) ([3]; 3 µM, time 55 s): 1.797
Mean (ΔFratio) ([3]; 3 µM, time 60 s): 1.789
Mean (ΔFratio) ([3]; 3 µM, time 65 s): 1.7806
Mean (ΔFratio) ([3]; 3 µM, time 70 s): 1.778
Mean (ΔFratio) ([3]; 3 µM, time 75 s): 1.702
Mean (ΔFratio) ([3]; 3 µM, time 80 s): 1.669
Mean (ΔFratio) ([3]; 3 µM, time 85 s): 1.657
Mean (ΔFratio) ([3]; 3 µM, time 90 s): 1.535
Mean (ΔFratio) ([3]; 3 µM, time 95 s): 1.511
Mean (ΔFratio) ([3]; 3 µM, time 100 s): 1.421
Mean (ΔFratio) ([3]; 3 µM, time 105 s): 1.3863
Mean (ΔFratio) ([3]; 3 µM, time 110 s): 1.364
Mean (ΔFratio) ([3]; 3 µM, time 115 s): 1.304
Mean (ΔFratio) ([3]; 3 µM, time 120 s): 1.27
Mean (ΔFratio) ([3]; 3 µM, time 125 s): 1.258
Mean (ΔFratio) ([3]; 3 µM, time 130 s): 1.2123
EC50 ([3]; 1.5 min exposure): 710 nM
Mean (concentration-response, Figure 3l) ([3]; 1.5 min exposure, 0.01 µM): 0.00606
Mean (concentration-response, Figure 3l) ([3]; 1.5 min exposure, 0.03 µM): 0.01869
Mean (concentration-response, Figure 3l) ([3]; 1.5 min exposure, 0.1 µM): 0.08252
Mean (concentration-response, Figure 3l) ([3]; 1.5 min exposure, 0.3 µM): 0.2937
Mean (concentration-response, Figure 3l) ([3]; 1.5 min exposure, 1 µM): 0.643
Mean (concentration-response, Figure 3l) ([3]; 1.5 min exposure, 3 µM): 0.8962
Mean (concentration-response, Figure 3l) ([3]; 1.5 min exposure, 10 µM): 1.056
EC50 [4]: 140 nM
Compound: O=C(O)c1ccc(-c2cnc(SCc3c(Cl)cccc3Cl)s2)cc1 [Yoda2b, 4-(2-([(2,6-Dichlorophenyl)methyl]sulfanyl)-1,3-thiazol-5-yl)benzoic acid]
side-by-side comparison of channel activation with Yoda1 ([3]; same 96-well plate): more effective at activating I2286T channels than Yoda1
